Starred links: 1 amine or outer side, 2 acyl side, 3 side chain; linkers in the order of their positions; H or OH if unused. Positions of bridges follow the written chain, without caps; N, C: chain ends. Non-standard residues stand in square brackets, D forms with d. Residues, ends and D or L forms follow the SMILES beside them. Groups on a side chain read outwards from the residue. *: point of attachment. KCOpipzaa = N6-(4-(carboxymethyl)piperazine-1-carbonyl)-L-lysine, O=C(NCCCC[C@H](N[*:1])C(=O)[*:2])N1CCN(CC(=O)[*:3])CC1; CH3O(CH2CH2O)7C2H4CO = COCCOCCOCCOCCOCCOCCOCCOCCC(=O)*; Piperazinyl(4-CH2COOH) = O=C(O)CN1CCN(*)CC1; 1Nal = N[C@@H](Cc1cccc2ccccc12)C(=O)O; Gly(NCH2CH2Ph) = O=C(O)CNCCc1ccccc1; 4Pal = N[C@@H](Cc1ccncc1)C(=O)O; CO = O=C([*:1])[*:2]
How the values were obtained:
[1] = molecular target: T1, recombinant human TGF-β1 (Homo sapiens, UniProt P01137); test: SPR intermolecular interaction test, TGF-β1 immobilized on CM3 sensor chip (Biacore T200); type: binding; settings: Single Cycle Kinetics, human TGF-β1
T1 construct: purchased R&D systems
T1 sequence (P01137 279-390 limits assumed): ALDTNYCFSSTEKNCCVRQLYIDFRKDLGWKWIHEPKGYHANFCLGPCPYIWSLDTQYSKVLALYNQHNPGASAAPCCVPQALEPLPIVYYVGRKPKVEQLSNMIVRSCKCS
Method: In this Example, (1) the activity of binding to TGF-β for various peptides consisting of the amino acid sequences set forth in SEQ ID NOs: 2-33 synthesized in Examples 1 to 5 and 7 was evaluated. (2) The activity and selectivity of binding of the peptide consisting of the amino acid sequence set forth in SEQ ID NO: 13 synthesized in Example 2 against two isoforms of TGF-β (TGF-β1 and β2) were checked. For this purpose, the intermolecular interaction of each peptide against TGF-β was tested by surface plasmon resonance (SPR) in the method described below. Specific test methods are described below.
A CM3 sensor chip (Global Life Science Technologies Japan Co., Ltd.) was inserted into a BiacoreT200 (Global Life Science Technologies Japan Co., Ltd.). Three priming runs were performed using running buffer: HBS-EP+ (Global Life Science Technologies Japan Co., Ltd.). The system was then equilibrated at a flow rate of 30 μL/min.
Subsequently, 50 μL of 60 mM EDC solution (Global Life Science Technologies Japan Co., Ltd.) and 50 μL of 650 mM NHS solution (Global Life Science Technologies Japan Co., Ltd.) were mixed. Next, the reaction was carried out at a flow rate of 10 μL/min for 420 seconds. Then, 150 μL of 0.2 μM TGF-β solution diluted in 10 mM acetic acid solution (pH 5.0) was prepared and reacted at a flow rate of 10 μL/min for 420 seconds to immobilize TGF-β on the CM3 sensor chip. TGF-β was human-derived TGF-β1 or β2 (recombinant human TGF-β1, 2) and was obtained from R&D systems. After immobilization, capping was performed by reacting with 1.0 M ethanolamine aqueous solution (Global Life Science Technologies Japan Co., Ltd.) at a flow rate of […] for 420 seconds.
A liquid prepared by dissolving each peptide at 10 mM in DMSO solution was diluted with running buffer to prepare a peptide-dissolved solution at a final concentration of 10 μM. Subsequently, 50 nM, 25 nM, 12.5 nM, 5 nM, and 2.5 nM peptide solutions were prepared. Using the above samples, the kinetics of each peptide against TGF-β was obtained by SPR measurement.
The kinetics evaluation model was Single Cycle Kinetics, and curve fitting was performed using Biacore T200 Evaluation Software Version 3.0 (Global Life Science Technologies Japan Co., Ltd.). The binding of various peptides to TGF-β was evaluated by performing least-squares curve fitting on the obtained sensorgram to calculate the KD value.

[2] = molecular target: T2, recombinant human TGF-β2 (Homo sapiens, UniProt P61812); test: SBE reporter assay in SBE reporter-HEK293 cells, TGF-β2 stimulation; type: cell-based; settings: FIG. 1
T2 construct: purchased R&D systems
T2 sequence (P61812 303-414 limits assumed): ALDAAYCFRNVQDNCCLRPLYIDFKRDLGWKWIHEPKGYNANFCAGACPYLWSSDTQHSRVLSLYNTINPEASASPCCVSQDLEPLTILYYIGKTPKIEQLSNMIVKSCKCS
Method: In addition, the selectivity of each peptide for TGF-β isoforms (TGF-β1 and β2) is checked. For this purpose, the inhibitory activity against TGF-β1 and TGF-β2 was evaluated using the peptide consisting of the amino acid sequence set forth in SEQ ID NO: 13 synthesized in Example 2.
SBE reporter-HEK293 cells were cultured in E-MEM (Wako) containing 10% FBS (Sigma). The cells were detached using Accutase (Innovative Cell Technologies), suspended in E-MEM containing 0.5% FBS, seeded onto a 96-well plate(s) at a concentration of 45,000 cells per well, and cultured overnight. The next day, the peptide was added and allowed to stand for 20 min, and recombinant human TGF-β1 (R&D systems) or recombinant human TGF-β2 (R&D systems) was then added at 0.13 nM and cultured for 18 hours.
Thereafter, luciferase assay ONE-Glo reagent was added to each well and the plate was shaken for 5 min. A SpectraMax Paradigm multimode microplate reader (Molecular Devices) was then used for signal detection. The obtained signals were analyzed by GraphPad Prism. The inhibitory activity of the peptide was calculated while the maximum signal induced by TGF-β was set to 0% inhibition and no stimulation was set to 100% inhibition.

[3] = molecular target: T1, recombinant human TGF-β1; test: SBE reporter assay in SBE reporter-HEK293 cells, TGF-β1 stimulation; type: cell-based; settings: for inhibition at 62 pM: peptide 0.062 nM; for inhibition at 0.000185 µM: peptide 0.185 nM; for inhibition at 0.00056 µM: peptide 0.56 nM; for inhibition at 0.0017 µM: peptide 1.7 nM; for inhibition at 0.005 µM: peptide 5.0 nM; for inhibition at 0.015 µM: peptide 15.0 nM
Outline: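 SBE luciferase reporter HEK293 cells in 0.5% FBS medium, preincubated 20 min with peptide, then stimulated 18 h with 0.13 nM recombinant human TGF-β1. Luminescence read; inhibition scaled with maximal TGF-β signal as 0% and unstimulated as 100%.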

[4] = molecular target: T3, recombinant human TGF-β1 (R&D systems) (human, UniProt P01137 279-390); test: cell-based or functional assay
T3 sequence (P01137 279-390 limits assumed): as the sequence (P01137 279-390 limits assumed) above

[5] = molecular target: T4, recombinant human TGF-β2 (R&D systems) (human, UniProt P61812 303-414); test: cell-based or functional assay
T4 sequence (looked up): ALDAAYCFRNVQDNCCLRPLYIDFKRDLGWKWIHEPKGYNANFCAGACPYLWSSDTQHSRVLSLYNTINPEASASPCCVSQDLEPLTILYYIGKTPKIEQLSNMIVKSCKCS

[6] = molecular target: T3, recombinant human TGF-β1 (R&D systems); test: cell-based or functional assay; remark: listed apart in the source
[7] = molecular target: T3, recombinant human TGF-β1 (R&D systems); test: cell-based or functional assay; remark: listed apart in the source
[8] = molecular target: T4, recombinant human TGF-β2 (R&D systems); test: SPR, TGF-β2 immobilised, single cycle kinetics; target TGF-β2, not TGF-β1

For `CC(C)[C@@H]1NC(=O)CN(CCc2ccccc2)C(=O)[C@H](CC(=O)O)NC(=O)[C@H](CC(=O)O)NC(=O)[C@H](Cc2ccncc2)NC(=O)[C@H](C(C)C)NC(=O)[C@H](CC(N)=O)NC(=O)[C@H](C(C)C)NC(=O)[C@H](C(C)C)NC(=O)[C@H](Cc2cccc3ccccc23)NC(=O)[C@H](Cc2ccccc2)NC(=O)CSC[C@@H](C(=O)NCC(N)=O)NC(=O)[C@H](CCCCNC(=O)N2CCN(CC(=O)O)CC2)NC(=O)[C@H](Cc2c[nH]cn2)NC(=O)[C@H](Cc2ccc(O)cc2)NC(=O)[C@H](Cc2cccc3ccccc23)NC1=O` [TGFb1_012] ({CH2CO}-F[1Nal]VVNV[4Pal]DD[Gly(NCH2CH2Ph)]V[1Nal]YHK([CO-Piperazinyl(4-CH2COOH)])CG-NH2; thioether N-16), the Kd [1] was 860 pM, the “inhibitory activity against TGF-β2 (in words)” value [2] was “inhibits not only TGF-β1 but also TGF-β2” and the “TGF-β1 antagonist / inhibitory activity (in words)” value ([3]; SBE reporter assay, FIG. 1 and Tables 2 and 3) was “inhibits not only TGF-β1 but also TGF-β2”. It also gave an inhibition at 62 pM ([3]; TGF-β1 0.13 nM, 18 hours) of 4.18%, an inhibition at 75 pM ([3]; peptide 0.075 nM, TGF-β1 0.13 nM, 18 hours) of 10.1% and an inhibition at 0.000185 µM ([3]; TGF-β1 0.13 nM, 18 hours) of 19.8%. It also gave an inhibition at 0.00056 µM ([3]; TGF-β1 0.13 nM, 18 hours) of 48.4%, an inhibition at 0.00075 µM ([3]; peptide 0.75 nM, TGF-β1 0.13 nM, 18 hours) of 65.2% and an inhibition at 0.0017 µM ([3]; TGF-β1 0.13 nM, 18 hours) of 80.9%. It also gave an inhibition at 0.005 µM ([3]; TGF-β1 0.13 nM, 18 hours) of 94.4%, an inhibition at 0.0075 µM ([3]; peptide 7.5 nM, TGF-β1 0.13 nM, 18 hours) of 96% and an inhibition at 0.015 µM ([3]; TGF-β1 0.13 nM, 18 hours) of 98.7%. It also gave an inhibition at 0.075 µM ([3]; peptide 75.0 nM, TGF-β1 0.13 nM, 18 hours) of 99.5%.

In the case of `COCCOCCOCCOCCOCCOCCOCCOCCC(=O)NCCCC[C@H](NC(=O)CNC(=O)[C@@H]1CSCC(=O)N[C@@H](Cc2ccccc2)C(=O)N[C@@H](Cc2cccc3ccccc23)C(=O)N[C@@H](C(C)C)C(=O)N[C@@H](C(C)C)C(=O)N[C@@H](CC(N)=O)C(=O)N[C@@H](C(C)C)C(=O)N[C@@H](Cc2ccncc2)C(=O)N[C@@H](CC(=O)O)C(=O)N[C@@H](CC(=O)O)C(=O)N(CCc2ccccc2)CC(=O)N[C@@H](C(C)C)C(=O)N[C@@H](Cc2cccc3ccccc23)C(=O)N[C@@H](Cc2ccc(O)cc2)C(=O)N[C@@H](Cc2c[nH]cn2)C(=O)N[C@@H](CCCCNC(=O)N2CCN(CC(=O)O)CC2)C(=O)N1)C(N)=O` [TGFb1_031] ({CH2CO}-F[1Nal]VVNV[4Pal]DD[Gly(NCH2CH2Ph)]V[1Nal]YHK([CO-Piperazinyl(4-CH2COOH)])CGK(CH3O(CH2CH2O)7C2H4CO)-NH2; thioether N-16), the Kd [1] is reported as 910 pM, the inhibition at 62 pM ([3]; TGF-β1 0.13 nM, 18 hours) is reported as 9.29% and the inhibition at 0.000185 µM ([3]; TGF-β1 0.13 nM, 18 hours) is reported as 20.1%. The inhibition at 0.00056 µM ([3]; TGF-β1 0.13 nM, 18 hours) was 51.9%, the inhibition at 0.0017 µM ([3]; TGF-β1 0.13 nM, 18 hours) was 84.9% and the inhibition at 0.005 µM ([3]; TGF-β1 0.13 nM, 18 hours) was 96.7%. For the same molecule, the inhibition at 0.015 µM ([3]; TGF-β1 0.13 nM, 18 hours) was 99.1%.

B1: TGFb1_012 (peptide)
peptide: {CH2CO}-F[1Nal]VVNV[4Pal]DD[Gly(NCH2CH2Ph)]V[1Nal]YH[KCOpipzaa]CG-NH2
modifications: thioether N-16
SMILES: CC(C)[C@@H]1NC(=O)CN(CCc2ccccc2)C(=O)[C@H](CC(=O)O)NC(=O)[C@H](CC(=O)O)NC(=O)[C@H](Cc2ccncc2)NC(=O)[C@H](C(C)C)NC(=O)[C@H](CC(N)=O)NC(=O)[C@H](C(C)C)NC(=O)[C@H](C(C)C)NC(=O)[C@H](Cc2cccc3ccccc23)NC(=O)[C@H](Cc2ccccc2)NC(=O)CSC[C@@H](C(=O)NCC(N)=O)NC(=O)[C@H](CCCCNC(=O)N2CCN(CC(=O)O)CC2)NC(=O)[C@H](Cc2c[nH]cn2)NC(=O)[C@H](Cc2ccc(O)cc2)NC(=O)[C@H](Cc2cccc3ccccc23)NC1=O
notes: cyclic peptide; C-terminal G is a linker; also called TGF-β1_012
B1 was tested, and the “IC50 (read off the curve) (SBE reporter assay in SBE reporter-HEK293 cells; TGF-β1 at 0.13 nM)” value [4] was ~700 pM, the “IC50 (read off the curve) (SBE reporter assay in SBE reporter-HEK293 cells; TGF-β2 at 0.13 nM)” value [5] was ~6000 pM and the “SBE reporter % inhibition, peptide 0.075 nM” value [6] was 10.1%. For the same molecule, the “SBE reporter % inhibition, peptide 0.75 nM” value [6] was 65.2%, the “SBE reporter % inhibition, peptide 7.5 nM” value [6] was 96% and the “SBE reporter % inhibition, peptide 75.0 nM” value [6] was 99.5%. The “SBE reporter % inhibition, peptide 0.062 nM” value [7] was 4.18%, the “SBE reporter % inhibition, peptide 0.185 nM” value [7] was 19.8% and the “SBE reporter % inhibition, peptide 0.56 nM” value [7] was 48.4%. For the same molecule, the “SBE reporter % inhibition, peptide 1.7 nM” value [7] was 80.9%, the “SBE reporter % inhibition, peptide 5.0 nM” value [7] was 94.4% and the “SBE reporter % inhibition, peptide 15.0 nM” value [7] was 98.7%. It also gave a Kd [8] of 2000 pM.

Source: patent publication US20250034212A1, “PEPTIDE” (PEPTIDREAM INC., priority 2021, published 2025)
